Results published in the supplement of paper PMC11061612.

Legend:
[1] = system: ASH-3 (Thyroid Gland Carcinoma); test: Bliss excess, mean over the matrix (fraction); higher = more synergy
Method in brief: (§1)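 Cell lines grown in DMEM/F12 or RPMI with 10% FBS were plated in 1536-well plates and held 24 hours at 37°C, 5% CO2 before 72 hours of exposure to two-drug dose matrices, with DMSO typically at 0.2%. CellTiter-Glo 2.0 luminescence gave viability, which was converted to inhibition. Vehicle wells were set to 0 and blank wells to 1. Combination Emax is the second-highest inhibition in the matrix, and Bliss excess is the observed combination effect minus the expected EA + EB − EA·EB, where EA and EB are the single-agent effects.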

[2] = system: HSC-2 (Oral Cavity Carcinoma); test: as above
Method in brief: as §1

[3] = system: KP-2 (Pancreatic Carcinoma); test: as above
Method in brief: as §1

[4] = system: KLE (Endometrial Carcinoma); test: as above
Method in brief: as §1

[5] = system: NCI-H2347 (Lung Adenocarcinoma); test: as above
Method in brief: as §1

[6] = system: JHH-7 (Hepatocellular Carcinoma); test: as above
Method in brief: as §1

[7] = system: SCC-3 (B-Cell Non-Hodgkin's Lymphoma); test: as above
Method in brief: as §1

[8] = system: NCI-N87 (Gastric Carcinoma); test: combination Emax (second highest fraction inhibited in the dose matrix, 72 h); higher = more inhibition; extreme values may be limits of the assay
Method in brief: as §1

[9] = system: LOU-NH91 (Squamous Cell Lung Carcinoma); test: as above
Method in brief: as §1

[10] = system: KYSE-50 (Esophageal Squamous Cell Carcinoma); test: as above
Method in brief: as §1

[11] = system: A704 (Kidney Carcinoma); test: as above
Method in brief: as §1

[12] = system: EMC-BAC-2 (Non-Small Cell Lung Carcinoma); test: as above
Method in brief: as §1

[13] = system: MFE-319 (Endometrial Carcinoma); test: as above
Method in brief: as §1

[14] = system: HSC-2 (Oral Cavity Carcinoma); test: as above
Method in brief: as §1

[15] = system: LC4-1 (B-Lymphoblastic Leukemia); test: as above
Method in brief: as §1

[16] = system: KYSE-150 (Esophageal Squamous Cell Carcinoma); test: as above
Method in brief: as §1

[17] = system: EW-3 (Ewing's Sarcoma); test: as above
Method in brief: as §1

[18] = system: RPMI-7951 (Melanoma); test: as above
Method in brief: as §1

[19] = system: IMR-5 (Neuroblastoma); test: as above
Method in brief: as §1

[20] = system: KINGS-1 (Low Grade Glioma); test: as above
Method in brief: as §1
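Wherever Bliss excess, mean over the matrix is given: after 72 h of two-drug dosing.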

| SMILES | Bliss excess [1] | Bliss excess [2] | Bliss excess [3] | Bliss excess [4] | Bliss excess [5] | Bliss excess [6] | Bliss excess [7] | combination Emax [8] | combination Emax [9] | combination Emax [10] | combination Emax [11] | combination Emax [12] | combination Emax [13] | combination Emax [14] | combination Emax [15] | combination Emax [16] | combination Emax [17] | combination Emax [18] | combination Emax [19] | combination Emax [20] |
| --- | --- | --- | --- | --- | --- | --- | --- | --- | --- | --- | --- | --- | --- | --- | --- | --- | --- | --- | --- | --- |
| Cc1c2c(nn1C)CSCc1cc(n(C)n1)CSc1cc(c3ccccc3c1)OCCCc1c(C(=O)O)n(C)c3c-2c(Cl)ccc13 [AZD5991] + C1CN(CCC1(C(=O)N[C@@H](CCO)C2=CC=C(C=C2)Cl)N)C3=NC=NC4=C3C=CN4 [Capivasertib] (first compound max 1 µM, 7x7, partner max 3 µM) | -0.0769 | 0.138 | -0.01 | -0.01 | -0.0313 | -0.0118 | 0.102 | 0.422 | 0.427 | 0.226 | 0.306 | 0.718 | 0.776 | 0.976 | 0.989 | 0.397 | 0.649 | 0.986 | 1 | 0.242 |
| CC1(C)CCC(CN2CCN(c3ccc(C(=O)NS(=O)(=O)c4ccc(NCC5CCOCC5)c([N+](=O)[O-])c4)c(Oc4cnc5[nH]ccc5c4)c3)CC2)=C(c2ccc(Cl)cc2)C1 [Venetoclax] + CCN(CCO)CCCOc1ccc2c(Nc3cc(CC(=O)Nc4cccc(F)c4)[nH]n3)ncnc2c1 [AZD2811] (first compound max 1 µM, 7x7, partner max 1 µM) | -0.0166 | -0.0264 | -0.0247 | -0.0629 | -0.053 | 0.0033 | 0.0418 | 0.242 | 0.307 | 0.413 | 0.167 | 0.343 | 0.243 | 0.327 | 1 | 0.308 | 0.779 | 0.454 | 1 | 0.243 |
| NC1(C(=O)N[C@@H](CCO)c2ccc(Cl)cc2)CCN(c2ncnc3[nH]ccc23)CC1 [Capivasertib] + CC(C)n1c(=O)n(C)c2cnc3cc(F)c(-c4ccc(OCCCN5CCCCC5)nc4)cc3c21 [AZD1390] (first compound max 10 µM, 7x7, partner max 0.3 µM) | -0.0478 | -0.0117 | -0.0612 | -0.0455 | -0.0524 | -0.0584 | -0.0169 | 0.674 | 0.456 | 0.14 | 0.314 | 0.462 | 0.368 | 0.447 | 0.465 | 0.375 | 0.258 | 0.662 | 0.161 | 0.374 |
| CN(C)CCCOc1ccc(-c2ccc3ncc4c(c3c2)n(C2CCOCC2)c(=O)n4C)cn1 [AZD0156] + C[C@@H]1COCCN1C2=NC(=NC(=C2)C3(CC3)[S@](=N)(=O)C)C4=C5C=CNC5=NC=C4 [AZD6738] (first compound max 1 µM, 7x7, partner max 10 µM) | 0.0429 | 0.0867 | 0.0173 | -0.0567 | -0.049 | 0.0082 | 0.0521 | 0.704 | 0.236 | 0.674 | 0.392 | 0.676 | 0.683 | 0.696 | 0.908 | 0.589 | 0.751 | 0.886 | 0.926 | 0.25 |
| COc1cc2c(cc1OCCCCCOc1cc3c(cc1OC)C(=O)N1C=C(C)C[C@H]1C=N3)N=C[C@@H]1CC(C)=CN1C2=O [SG3199] + O=C(c1cc(Cc2n[nH]c(=O)c3ccccc23)ccc1F)N1CCN(C(=O)C2CC2)CC1 [Olaparib] (first compound max 0.001 µM, 7x7, partner max 10 µM) | -0.0232 | -0.0751 | -0.0193 | 0.0057 | -0.0661 | -0.0368 | 0.0586 | 0.125 | 0.175 | 0.0539 | 0.202 | 0.169 | 0.12 | 0.116 | 0.528 | 0.183 | 0.634 | 0.203 | 0.543 | 0.147 |
| NC1(C(=O)N[C@@H](CCO)c2ccc(Cl)cc2)CCN(c2ncnc3[nH]ccc23)CC1 [Capivasertib] + C[C@@H]1COCCN1C2=NC(=NC(=C2)C3(CC3)[S@](=N)(=O)C)C4=C5C=CNC5=NC=C4 [AZD6738] (first compound max 10 µM, 7x7, partner max 10 µM) | -0.0468 | -0.0096 | -0.0279 | -0.0692 | -0.0218 | -0.0404 | -0.0037 | 0.781 | 0.569 | 0.676 | 0.524 | 0.728 | 0.787 | 0.701 | 0.949 | 0.681 | 0.87 | 0.892 | 0.99 | 0.425 |
| Cc1cc2ncnn2cc1Nc1ncc2c(n1)n(C1CCOCC1)c(=O)n2C [AZD7648] + C[C@@H]1COCCN1C2=NC(=NC(=C2)C3(CC3)[S@](=N)(=O)C)C4=C5C=CNC5=NC=C4 [AZD6738] (first compound max 10 µM, 7x7, partner max 10 µM) | 0.0459 | 0.0627 | 0.0004 | -0.0639 | -0.0451 | 0.0247 | -0.0083 | 0.718 | 0.295 | 0.628 | 0.395 | 0.513 | 0.726 | 0.596 | 0.937 | 0.561 | 0.755 | 0.912 | 0.951 | 0.283 |
| Cc1cc2ncnn2cc1Nc1ncc2c(n1)n(C1CCOCC1)c(=O)n2C [AZD7648] + CCN(CCO)CCCOc1ccc2c(Nc3cc(CC(=O)Nc4cccc(F)c4)[nH]n3)ncnc2c1 [AZD2811] (first compound max 10 µM, 7x7, partner max 1 µM) | 0.0309 | 0.0999 | -0.0206 | -0.0193 | 0.0131 | -0.0244 | 0.0548 | 0.44 | 0.37 | 0.341 | 0.247 | 0.349 | 0.278 | 0.547 | 0.839 | 0.658 | 0.397 | 0.476 | 0.98 | 0.353 |
| Cc1nc(Nc2ncc(C(=O)Nc3c(C)cccc3Cl)s2)cc(N2CCN(CCO)CC2)n1 [Dasatinib] + CC(=O)Nc1cccc(-n2c(=O)n(C3CC3)c(=O)c3c(Nc4ccc(I)cc4F)n(C)c(=O)c(C)c32)c1 [Trametinib] (first compound max 2 µM, 7x7, partner max 1 µM) | 0.0994 | -0.0238 | 0.136 | -0.0052 | 0.153 | -0.0394 | -0.0403 | 0.764 | 0.674 | 0.858 | 1 | 0.779 | 0.368 | 0.804 | 0.244 | 0.743 | 0.0371 | 0.87 | 0.19 | 0.465 |
| CN(CCO)CC[C@H](CSc1ccccc1)Nc1ccc(S(=O)(=O)NC(=O)c2ccc(N3CCC([C@@H](O)c4ccccc4-c4ccc(Cl)cc4)CC3)cc2)cc1S(=O)(=O)C(F)(F)F [AZD4320] + Cc1cc2ncnn2cc1Nc1ncc2c(n1)n(C1CCOCC1)c(=O)n2C [AZD7648] (first compound max 1 µM, 7x7, partner max 10 µM) | -0.0866 | 0.0257 | -0.0338 | -0.0116 | -0.0312 | -0.0253 | -0.0018 | 0.544 | 0.346 | 0.096 | 0.563 | 0.258 | 0.264 | 0.461 | 1 | 0.478 | 0.958 | 0.516 | 0.738 | 0.466 |
| Cc1cc2ncnn2cc1Nc1ncc2c(n1)n(C1CCOCC1)c(=O)n2C [AZD7648] + C=CCn1c(=O)c2cnc(Nc3ccc(N4CCN(C)CC4)cc3)nc2n1-c1cccc(C(C)(C)O)n1 [AZD1775] (first compound max 10 µM, partner max 1 µM) | -0.0006 | 0.0566 | -0.014 | 0.0159 | -0.0279 | -0.0337 | -0.0277 | 0.731 | 0.466 | 0.431 | 0.478 | 0.392 | 0.68 | 0.596 | 0.898 | 0.643 | 0.329 | 0.704 | 0.781 | 0.318 |
| CC1(C)CCC(CN2CCN(c3ccc(C(=O)NS(=O)(=O)c4ccc(NCC5CCOCC5)c([N+](=O)[O-])c4)c(Oc4cnc5[nH]ccc5c4)c3)CC2)=C(c2ccc(Cl)cc2)C1 [Venetoclax] + CN(C)CCCOc1ccc(-c2ccc3ncc4c(c3c2)n(C2CCOCC2)c(=O)n4C)cn1 [AZD0156] (first compound max 1 µM, 7x7, partner max 1 µM) | -0.0193 | 0.0307 | -0.0193 | -0.145 | -0.0488 | -0.032 | 0.0194 | 0.461 | 0.227 | 0.164 | 0.185 | 0.25 | 0.243 | 0.722 | 1 | 0.237 | 0.799 | 0.304 | 0.0957 | 0.301 |
